Assay results taken from the OligoGym collection.
“And” between values parts separate entries of the source, which are not always exact repeats. Identical values can stand only once. HELM strings list units from the 5' end as sugar, base in round brackets, then linkage (d deoxyribose, r ribose, m 2'-O-methyl, p phosphodiester). Strings are as the collection lists them, not checked against the first reports. ss, as = sense and antisense strand; [lna] = locked nucleic acid (LNA); [s4r] = 4'-thioribose; [fl2r] = 2'-fluoro

Settings: siRNA
Further: test system not given here.

Substance	target mRNA knockdown
RNA1{[lna](G)p.r(C)p.r(A)p.r(G)p.r(C)p.r(A)p.r(C)p.r(G)p.r(A)p.r(C)p.r(U)p.r(U)p.r(C)p.r(U)p.r(U)p.r(C)p.r(A)p.r(A)p.r(G)p.r(U)p.r(U)}|RNA2{r(C)p.[fl2r](U)p.r(U)p.r(G)p.r(A)p.r(A)p.r(G)p.r(A)p.r(A)p.r(G)p.r(U)p.r(C)p.r(G)p.r(U)p.r(G)p.r(C)p.r(U)p.r(G)p.r(C)p.r(U)p.r(U)}$$$RNA1{StrandType:ss}|RNA2{StrandType:as}$	69.3%
RNA1{[lna](G)p.r(C)p.r(A)p.r(G)p.r(C)p.r(A)p.r(C)p.r(G)p.r(A)p.r(C)p.r(U)p.r(U)p.r(C)p.r(U)p.r(U)p.r(C)p.r(A)p.r(A)p.r(G)p.r(U)p.r(U)}|RNA2{r(C)p.m(U)p.r(U)p.r(G)p.r(A)p.r(A)p.r(G)p.r(A)p.r(A)p.r(G)p.r(U)p.r(C)p.r(G)p.r(U)p.r(G)p.r(C)p.r(U)p.r(G)p.r(C)p.r(U)p.r(U)}$$$RNA1{StrandType:ss}|RNA2{StrandType:as}$	68.6%
RNA1{[lna](G)p.r(C)p.r(A)p.r(G)p.r(C)p.r(A)p.r(C)p.r(G)p.r(A)p.r(C)p.r(U)p.r(U)p.r(C)p.r(U)p.r(U)p.r(C)p.r(A)p.r(A)p.r(G)p.r(U)p.r(U)}|RNA2{r(C)p.r(U)p.r(U)p.r(G)p.r(A)p.r(A)p.r(G)p.r(A)p.r(A)p.r(G)p.r(U)p.r(C)p.r(G)p.r(U)p.r(G)p.r(C)p.r(U)p.r(G)p.r(C)p.r(U)p.r(U)}$$$RNA1{StrandType:ss}|RNA2{StrandType:as}$	73.2%
RNA1{[lna](G)p.r(C)p.r(U)p.r(G)p.r(A)p.r(C)p.r(C)p.r(C)p.r(U)p.r(G)p.r(A)p.r(A)p.r(G)p.r(U)p.r(U)p.r(C)p.r(A)p.r(U)p.r(C)p.[lna](T)p.[lna](T)}|RNA2{r(G)p.r(A)p.r(U)p.r(G)p.r(A)p.r(A)p.r(C)p.r(U)p.r(U)p.r(C)p.r(A)p.r(G)p.r(G)p.r(G)p.r(U)p.r(C)p.r(A)p.r(G)p.r(C)p.[lna](T)p.[lna](T)}$$$RNA1{StrandType:ss}|RNA2{StrandType:as}$	61%
RNA1{[lna](G)p.r(G)p.r(A)p.r(U)p.r(G)p.r(A)p.r(G)p.r(G)p.r(A)p.r(A)p.r(G)p.r(G)p.r(C)p.r(A)p.r(A)p.r(U)p.r(U)p.r(U)p.r(A)p.[lna](T)p.[lna](T)}|RNA2{r(U)p.r(A)p.r(A)p.r(A)p.r(U)p.r(U)p.r(G)p.r(C)p.r(C)p.r(U)p.r(U)p.r(C)p.r(C)p.r(U)p.r(C)p.r(A)p.r(U)p.r(C)p.r(C)p.[lna](T)p.[lna](T)}$$$RNA1{StrandType:ss}|RNA2{StrandType:as}$	50%
RNA1{[lna](G)p.r(G)p.r(C)p.r(C)p.r(U)p.r(U)p.r(U)p.r(C)p.r(A)p.r(C)p.r(U)p.r(A)p.r(C)p.r(U)p.r(C)p.r(C)p.r(U)p.r(A)p.r(C)p.[lna](G)p.[lna](A)}|RNA2{r(G)p.r(U)p.r(A)p.r(G)p.r(G)p.r(A)p.r(G)p.r(U)p.r(A)p.r(G)p.r(U)p.r(G)p.r(A)p.r(A)p.r(A)p.r(G)p.r(G)p.r(C)p.r(C)p.r(A)p.r(G)}$$$RNA1{StrandType:ss}|RNA2{StrandType:as}$	83%
RNA1{[lna](G)p.r(G)p.r(C)p.r(C)p.r(U)p.r(U)p.r(U)p.r(C)p.r(A)p.r(C)p.r(U)p.r(A)p.r(C)p.r(U)p.r(C)p.r(C)p.r(U)p.r(A)p.r(C)p.r(G)p.r(A)}|RNA2{r(G)p.r(U)p.r(A)p.r(G)p.r(G)p.r(A)p.r(G)p.r(U)p.r(A)p.r(G)p.r(U)p.r(G)p.r(A)p.r(A)p.r(A)p.r(G)p.r(G)p.r(C)p.r(C)p.r(A)p.r(G)}$$$RNA1{StrandType:ss}|RNA2{StrandType:as}$	86%
RNA1{[lna](T)p.r(C)p.r(C)p.r(A)p.r(G)p.r(A)p.r(A)p.r(C)p.r(A)p.r(A)p.r(A)p.r(G)p.r(G)p.r(A)p.r(A)p.r(A)p.r(C)p.r(G)p.r(G)p.[lna](T)p.[lna](T)}|RNA2{r(C)p.r(C)p.r(G)p.r(U)p.r(U)p.r(U)p.r(C)p.r(C)p.r(U)p.r(U)p.r(U)p.r(G)p.r(U)p.r(U)p.r(C)p.r(U)p.r(G)p.r(G)p.r(A)p.r(T)p.r(T)}$$$RNA1{StrandType:ss}|RNA2{StrandType:as}$	50%
RNA1{[lna](T)p.r(G)p.[lna](A)p.r(G)p.[lna](A)p.r(G)p.r(A)p.r(A)p.[lna](A)p.r(G)p.r(C)p.[lna](A)p.r(C)p.[lna](A)p.r(G)p.r(A)p.[lna](A)p.r(A)p.r(A)p.[lna](T)p.[lna](T)}|RNA2{r(U)p.r(G)p.r(A)p.r(G)p.r(A)p.r(G)p.r(A)p.r(A)p.r(A)p.r(G)p.r(C)p.r(A)p.r(C)p.r(A)p.r(G)p.r(A)p.r(A)p.r(A)p.r(A)p.d(T)p.d(T)}$$$RNA1{StrandType:ss}|RNA2{StrandType:as}$	64%
RNA1{[lna](T)p.r(G)p.[lna](A)p.r(G)p.[lna](A)p.r(G)p.r(A)p.r(A)p.[lna](A)p.r(G)p.r(C)p.[lna](A)p.r(C)p.[lna](A)p.r(G)p.r(A)p.[lna](A)p.r(A)p.r(A)p.[lna](T)p.[lna](T)}|RNA2{r(U)p.r(U)p.r(U)p.r(U)p.r(C)p.r(U)p.r(G)p.r(U)p.r(G)p.r(C)p.r(U)p.r(U)p.r(U)p.r(C)p.r(U)p.r(C)p.r(U)p.r(C)p.r(A)p.r(T)p.r(T)}$$$RNA1{StrandType:ss}|RNA2{StrandType:as}$	68%
RNA1{[lna](T)p.r(G)p.r(A)p.r(G)p.r(A)p.r(G)p.r(A)p.r(A)p.r(A)p.r(G)p.r(C)p.r(A)p.r(C)p.r(A)p.r(G)p.r(A)p.r(A)p.r(A)p.r(A)p.[lna](T)p.[lna](T)}|RNA2{[lna](T)p.r(U)p.r(U)p.r(U)p.r(C)p.r(U)p.r(G)p.r(U)p.r(G)p.r(C)p.r(U)p.r(U)p.r(U)p.r(C)p.r(U)p.r(C)p.r(U)p.r(C)p.r(A)p.[lna](T)p.[lna](T)}$$$RNA1{StrandType:ss}|RNA2{StrandType:as}$	67% and 72%
RNA1{[lna](T)p.r(G)p.r(A)p.r(G)p.r(A)p.r(G)p.r(A)p.r(A)p.r(A)p.r(G)p.r(C)p.r(A)p.r(C)p.r(A)p.r(G)p.r(A)p.r(A)p.r(A)p.r(A)p.[lna](T)p.[lna](T)}|RNA2{r(U)p.r(U)p.r(U)p.r(U)p.r(C)p.r(U)p.r(G)p.r(U)p.r(G)p.r(C)p.r(U)p.r(U)p.r(U)p.r(C)p.r(U)p.r(C)p.r(U)p.r(C)p.r(A)p.d(T)p.d(T)}$$$RNA1{StrandType:ss}|RNA2{StrandType:as}$	70%
RNA1{[lna](T)p.r(G)p.r(A)p.r(G)p.r(A)p.r(G)p.r(A)p.r(A)p.r(A)p.r(G)p.r(C)p.r(A)p.r(C)p.r(A)p.r(G)p.r(A)p.r(A)p.r(A)p.r(A)p.[lna](T)p.[lna](T)}|RNA2{r(U)p.r(U)p.r(U)p.r(U)p.r(C)p.r(U)p.r(G)p.r(U)p.r(G)p.r(C)p.r(U)p.r(U)p.r(U)p.r(C)p.r(U)p.r(C)p.r(U)p.r(C)p.r(A)p.r(T)p.r(T)}$$$RNA1{StrandType:ss}|RNA2{StrandType:as}$	74%
RNA1{[s4r](A)p.[s4r](A)p.[s4r](A)p.[s4r](C)p.[s4r](A)p.[s4r](U)p.r(G)p.r(C)p.r(A)p.r(G)p.r(A)p.r(A)p.r(A)p.[s4r](A)p.[s4r](U)p.[s4r](G)p.[s4r](C)p.[s4r](U)p.[s4r](G)p.r(T)p.r(T)}|RNA2{r(C)p.r(A)p.r(G)p.r(C)p.r(A)p.r(U)p.r(U)p.r(U)p.r(U)p.r(C)p.r(U)p.r(G)p.r(C)p.r(A)p.r(U)p.[s4r](G)p.[s4r](U)p.[s4r](U)p.[s4r](U)p.r(T)p.r(T)}$$$RNA1{StrandType:ss}|RNA2{StrandType:as}$	84.4%
RNA1{[s4r](A)p.[s4r](A)p.[s4r](A)p.[s4r](C)p.[s4r](A)p.[s4r](U)p.r(G)p.r(C)p.r(A)p.r(G)p.r(A)p.r(A)p.r(A)p.[s4r](A)p.[s4r](U)p.[s4r](G)p.[s4r](C)p.[s4r](U)p.[s4r](G)p.r(T)p.r(T)}|RNA2{r(C)p.r(A)p.r(G)p.r(C)p.r(A)p.r(U)p.r(U)p.r(U)p.r(U)p.r(C)p.r(U)p.r(G)p.r(C)p.r(A)p.r(U)p.r(G)p.r(U)p.r(U)p.r(U)p.r(T)p.r(T)}$$$RNA1{StrandType:ss}|RNA2{StrandType:as}$	75.4% and 87%
RNA1{[s4r](A)p.[s4r](A)p.[s4r](A)p.[s4r](C)p.r(A)p.r(U)p.r(G)p.r(C)p.r(A)p.r(G)p.r(A)p.r(A)p.r(A)p.r(A)p.r(U)p.[s4r](A)p.[s4r](C)p.[s4r](C)p.[s4r](U)p.r(T)p.r(T)}|RNA2{[s4r](C)p.[s4r](A)p.r(G)p.r(C)p.r(A)p.r(U)p.r(U)p.r(U)p.r(U)p.r(C)p.r(U)p.r(G)p.r(C)p.r(A)p.r(U)p.r(G)p.r(U)p.[s4r](U)p.[s4r](U)p.r(T)p.r(T)}$$$RNA1{StrandType:ss}|RNA2{StrandType:as}$	80.8%
RNA1{[s4r](A)p.[s4r](A)p.[s4r](A)p.[s4r](C)p.r(A)p.r(U)p.r(G)p.r(C)p.r(A)p.r(G)p.r(A)p.r(A)p.r(A)p.r(A)p.r(U)p.[s4r](G)p.[s4r](C)p.[s4r](C)p.[s4r](U)p.r(T)p.r(T)}|RNA2{r(C)p.r(A)p.r(G)p.r(C)p.r(A)p.r(U)p.r(U)p.r(U)p.r(U)p.r(C)p.r(U)p.r(G)p.r(C)p.r(A)p.r(U)p.[s4r](G)p.[s4r](U)p.[s4r](U)p.[s4r](U)p.r(T)p.r(T)}$$$RNA1{StrandType:ss}|RNA2{StrandType:as}$	87.3%
RNA1{[s4r](A)p.[s4r](A)p.[s4r](A)p.[s4r](C)p.r(A)p.r(U)p.r(G)p.r(C)p.r(A)p.r(G)p.r(A)p.r(A)p.r(A)p.r(A)p.r(U)p.[s4r](G)p.[s4r](C)p.[s4r](C)p.[s4r](U)p.r(T)p.r(T)}|RNA2{r(C)p.r(A)p.r(G)p.r(C)p.r(A)p.r(U)p.r(U)p.r(U)p.r(U)p.r(C)p.r(U)p.r(G)p.r(C)p.r(A)p.r(U)p.r(G)p.r(U)p.[s4r](U)p.[s4r](U)p.r(T)p.r(T)}$$$RNA1{StrandType:ss}|RNA2{StrandType:as}$	87.7%
RNA1{[s4r](A)p.[s4r](A)p.[s4r](A)p.[s4r](C)p.r(A)p.r(U)p.r(G)p.r(C)p.r(A)p.r(G)p.r(A)p.r(A)p.r(A)p.r(A)p.r(U)p.[s4r](G)p.[s4r](C)p.[s4r](U)p.[s4r](G)p.r(T)p.r(T)}|RNA2{[s4r](C)p.[s4r](A)p.r(G)p.r(C)p.r(A)p.r(U)p.r(U)p.r(U)p.r(U)p.r(C)p.r(U)p.r(G)p.r(C)p.r(A)p.r(U)p.r(G)p.r(U)p.[s4r](U)p.[s4r](U)p.r(T)p.r(T)}$$$RNA1{StrandType:ss}|RNA2{StrandType:as}$	66.3%
